ChEMBL document CHEMBL1201862, “PubChem BioAssay data set” (2004)
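Five compound concentrations were applied to cells in 96-well plates for 48 hours; endpoints were derived by simple linear interpolation of the resulting dose-response curve. The concentration for 50% growth inhibition is given as GI50.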 The source made the active and inactive calls. No stated cut-off is given here; in the data, active = GI50 up to about 1.1 µM and inactive = higher.

Key:
Assay in all cases: growth of human tumour cells (NCI), 48 h
SK-MEL-2 = test system: SK-MEL-2
SNB-19 = test system: SNB-19
SK-OV-3 = test system: SK-OV-3
HT-29 = test system: HT-29
ACHN = test system: ACHN
TK-10 = test system: TK-10
MCF7 = test system: MCF7
MOLT-4 = test system: MOLT-4
UACC-257 = test system: UACC-257
KM12 = test system: KM12
M14 = test system: M14
BT-549 = test system: BT-549
CAKI-1 = test system: CAKI-1
OVCAR-3 = test system: OVCAR-3
OVCAR-4 = test system: OVCAR-4
DU-145 = test system: DU-145
HOP-92 = test system: HOP-92
SR = test system: SR

| Structure (SMILES) | GI50 (SK-MEL-2) | GI50 (SNB-19) | GI50 (SK-OV-3) | GI50 (HT-29) | GI50 (ACHN) | GI50 (TK-10) | GI50 (MCF7) | GI50 (MOLT-4) | GI50 (UACC-257) | GI50 (KM12) | GI50 (M14) | GI50 (BT-549) | GI50 (CAKI-1) | GI50 (OVCAR-3) | GI50 (OVCAR-4) | GI50 (DU-145) | GI50 (HOP-92) | GI50 (SR) |
| --- | --- | --- | --- | --- | --- | --- | --- | --- | --- | --- | --- | --- | --- | --- | --- | --- | --- | --- |
| CCOP(=O)(/C=C\n1ccc(=O)[nH]c1=O)OCC | > 100 µM (inactive) | > 100 µM (inactive) | > 100 µM (inactive) | > 100 µM (inactive) | > 100 µM (inactive) | > 100 µM (inactive) | > 100 µM (inactive) | > 100 µM (inactive) | > 100 µM (inactive) | > 100 µM (inactive) | > 100 µM (inactive) | > 100 µM (inactive) | > 100 µM (inactive) | > 100 µM (inactive) | > 100 µM (inactive) | > 100 µM (inactive) | – | – |
| CCOC(=O)/C(C(=O)Nc1cccc(C(F)(F)F)c1)=C(/N)N1CCCC1 | > 100 µM (inactive) | > 100 µM (inactive) | 52.4 µM (inactive) | > 100 µM (inactive) | > 100 µM (inactive) | > 100 µM (inactive) | 63 µM (inactive) | > 100 µM (inactive) | > 100 µM (inactive) | > 100 µM (inactive) | > 100 µM (inactive) | > 100 µM (inactive) | > 100 µM (inactive) | > 100 µM (inactive) | > 100 µM (inactive) | > 100 µM (inactive) | – | – |
| CC[C@H](C)[C@H](NC(=O)[C@H](Cc1ccc(O)cc1)NCC(F)(F)F)C(=O)OC(C)(C)C | 6.53 µM (inactive) | 7.96 µM (inactive) | 8.11 µM (inactive) | 7.6 µM (inactive) | 7.33 µM (inactive) | 8.09 µM (inactive) | 7.74 µM (inactive) | 6.35 µM (inactive) | 6.82 µM (inactive) | 7.78 µM (inactive) | 7.03 µM (inactive) | 10.8 µM (inactive) | 7.01 µM (inactive) | – | 5.64 µM (inactive) | – | 8.99 µM (inactive) | 5.97 µM (inactive) |
| CNC(=O)c1nnn(C2CCCCC2)c1S | > 100 µM (inactive) | > 100 µM (inactive) | > 100 µM (inactive) | > 100 µM (inactive) | > 100 µM (inactive) | – | > 100 µM (inactive) | > 100 µM (inactive) | > 100 µM (inactive) | > 100 µM (inactive) | > 100 µM (inactive) | – | > 100 µM (inactive) | 0.0885 µM (active) | > 100 µM (inactive) | > 100 µM (inactive) | > 100 µM (inactive) | > 100 µM (inactive) |
| CC[C@]1(Cc2ccc(OC)c(OC)c2)CN(S(=O)(=O)c2ccc(C)cc2)C[C@@H]1OC(C)=O | > 100 µM (inactive) | > 100 µM (inactive) | 64.6 µM (inactive) | 96.8 µM (inactive) | > 100 µM (inactive) | > 100 µM (inactive) | > 100 µM (inactive) | > 100 µM (inactive) | > 100 µM (inactive) | > 100 µM (inactive) | > 100 µM (inactive) | – | 95.7 µM (inactive) | 67.8 µM (inactive) | > 100 µM (inactive) | > 100 µM (inactive) | 40.4 µM (inactive) | > 100 µM (inactive) |
| Cc1ccc2nc(-c3ccc(N)c(I)c3)sc2c1 | 17.9 µM (inactive) | 19 µM (inactive) | 38.2 µM (inactive) | 18.9 µM (inactive) | 20.8 µM (inactive) | 0.39 µM (active) | – | 10.4 µM (inactive) | 23.7 µM (inactive) | 5.87 µM (inactive) | 37.1 µM (inactive) | 97.7 µM (inactive) | > 100 µM (inactive) | 21.8 µM (inactive) | 2.09 µM (inactive) | – | 20.1 µM (inactive) | 4.2 µM (inactive) |
| c1ccc2cc3c(NC4=NCCO4)cccc3cc2c1 | 46.1 µM (inactive) | 78.7 µM (inactive) | > 100 µM (inactive) | 29.9 µM (inactive) | 68.1 µM (inactive) | 86.9 µM (inactive) | 68.7 µM (inactive) | 31.1 µM (inactive) | 48.5 µM (inactive) | 44.7 µM (inactive) | 34.3 µM (inactive) | – | 52.5 µM (inactive) | 32.2 µM (inactive) | 35.6 µM (inactive) | 78.7 µM (inactive) | 17.6 µM (inactive) | 36 µM (inactive) |
| COc1ccc(C2=NN(C(=O)c3ccc(Cl)cc3)C(O)(c3cc(F)c(Cl)cc3Cl)C2)cc1OC (centres undefined) | 78.7 µM (inactive) | – | > 100 µM (inactive) | 4.29 µM (inactive) | 14.9 µM (inactive) | 86.7 µM (inactive) | 4.61 µM (inactive) | 4.13 µM (inactive) | 31.3 µM (inactive) | 8.15 µM (inactive) | 12.5 µM (inactive) | – | 18.6 µM (inactive) | 41.8 µM (inactive) | 18 µM (inactive) | 8.51 µM (inactive) | 13.2 µM (inactive) | – |
| O=C(OCC1OC(c2nn[nH]n2)C(OC(=O)c2ccccc2)C1OC(=O)c1ccccc1)c1ccccc1 (centres undefined) | > 100 µM (inactive) | 32.7 µM (inactive) | > 100 µM (inactive) | 61.9 µM (inactive) | > 100 µM (inactive) | > 100 µM (inactive) | 41.2 µM (inactive) | > 100 µM (inactive) | > 100 µM (inactive) | 67.6 µM (inactive) | – | > 100 µM (inactive) | > 100 µM (inactive) | > 100 µM (inactive) | > 100 µM (inactive) | > 100 µM (inactive) | > 100 µM (inactive) | – |
| Clc1nc(Cl)c(Cl)c(-c2ccccc2)n1 | 15.4 µM (inactive) | 15.6 µM (inactive) | 13.1 µM (inactive) | 1.68 µM (inactive) | 17.4 µM (inactive) | 18.8 µM (inactive) | 7.05 µM (inactive) | 1.58 µM (inactive) | 20.5 µM (inactive) | 5.02 µM (inactive) | 1.77 µM (inactive) | 2.41 µM (inactive) | – | 2.05 µM (inactive) | 4.85 µM (inactive) | – | – | 0.322 µM (active) |
| Nc1ncc2c(n1)-c1ccccc1OC2N1CCOCC1 (centres undefined) | > 100 µM (inactive) | > 100 µM (inactive) | > 100 µM (inactive) | > 100 µM (inactive) | > 100 µM (inactive) | > 100 µM (inactive) | > 100 µM (inactive) | > 100 µM (inactive) | > 100 µM (inactive) | > 100 µM (inactive) | > 100 µM (inactive) | – | > 100 µM (inactive) | > 100 µM (inactive) | > 100 µM (inactive) | > 100 µM (inactive) | > 100 µM (inactive) | 52.7 µM (inactive) |
| COC(=O)[C@H](Cc1c[nH]c2ccccc12)NP(=O)(O)OCC1C=CC(n2cc(C)c(=O)[nH]c2=O)O1 (some centres undefined) | > 100 µM (inactive) | > 100 µM (inactive) | – | > 100 µM (inactive) | – | – | – | > 100 µM (inactive) | – | > 100 µM (inactive) | – | > 100 µM (inactive) | > 100 µM (inactive) | > 100 µM (inactive) | > 100 µM (inactive) | > 100 µM (inactive) | > 100 µM (inactive) | – |
| CC1=NN(C(=O)c2ccccc2O)C(=O)/C1=C/c1cccc([N+](=O)[O-])c1 | 3.1 µM (inactive) | 0.385 µM (active) | 15.3 µM (inactive) | 38.7 µM (inactive) | 0.528 µM (active) | 15.6 µM (inactive) | 2.52 µM (inactive) | – | 5.73 µM (inactive) | 0.703 µM (active) | 2.37 µM (inactive) | – | 2.2 µM (inactive) | 1.87 µM (inactive) | 3.55 µM (inactive) | 1.55 µM (inactive) | 1.27 µM (inactive) | > 100 µM (inactive) |
